“Also recorded” adds a separate entry of the source.
How the values were obtained:
[1] = test system: α-tubulin acetylation in the presence of ITSA1; assay: ITSA1+AcTubulin assay: suppression of induced acetylation by ITSA1; assay type: cell-based, human; conditions: ITSA1 50 μM, A549 cells
Method: A549 cells were seeded at a density of 4,000 cells/50 μl in DMEM+ in white tissue culture-treated 384-well plates (Nalge Nunc) using a Multidrop 384 liquid dispenser (Labsystems). Library small molecules were pinned twice (100-150 nl/pin) from ˜1 mM stock solutions (DMSO) and incubated for 18 hours. For the ITSA1+AcTubulin assay, ITSA1 (50 μM) was added four hours after pin-transfer of library molecules. Media was aspirated with a 16-channel wand. […] Plates were read on an Analyst plate reader (LJL Biosystems) with an integration time of 0.1 seconds.
Bromodeoxyuridine labeling and fluorescence-activated cell sorting (FACS) were performed as described (K. M. Koeller et al., Chemistry & Biology, 10 (5) (2003) pp. 397-410). […]

[2] = test system: microtubules in A549 cells; assay: microtubule stability to nocodazole, cold or calcium depolymerization and repolymerization; assay type: cell-based, human; conditions: tubacin 2 μM
Method: Detection of acetylated α-tubulin and acetylated histones by immunofluorescence was performed as described in Example 6 above. For determining microtubule stability, A549 cells were treated as indicated, fixed in glutaraldehyde, and stained for acetylated α-tubulin and total α-tubulin in antibody dilution buffer (ADB, Tris-buffered saline (TBS), 0.15 M NaCl, 0.02 M Tris-Cl, pH 7.4, with 2% bovine serum albumin and 0.1% Triton-X 100). For cold-depolymerization, cells were incubated at 4° C. or 37° C. for an additional 90 minutes before fixation. For calcium depolymerization, cells were incubated at 37° C. for 10 minutes in a microtubule-stabilizing buffer (0.2% NP-40, 5 mM MgCl2, 2 mM EGTA, 2 M glycerol, 100 mM PIPES, pH 6.8) with and without the addition of CaCl2 (2 mM) before glutaraldehyde fixation. For co-localization experiments, biotubacin (50 μM) treated A549 cells were fixed in 3.7% formaldehyde in TBS and processed as for detecting acetylated α-tubulin (See Example 6 above) with biotubacin detected using streptavidin-TR (1:500). HDAC6 was detected using a rabbit polyclonal antibody (1:250-1:750; C.M.G., unpublished data) under the conditions used to detect acetylated α-tubulin (See Example 6 above). Filamentous actin in HT-1080 cells was detected using TR-conjugated phalloidin (1 μg/mL), and depolymerized actin using FITC-conjugated deoxyribonuclease (10 μg/mL), following fixation in 3.7% formaldehyde in TBS. p58 (1:100) in NIH-3T3 cells was detected after fixation in 3.7% formaldehyde in TBS. Images for these experiments were collected on a Zeiss LSM510 confocal scanning laser microscope at the appropriate wavelengths using the accompanying software and processed with Adobe Photoshop. Deconvoluted serial images of TSA and DMSO treated A549 cells were obtained by taking sections (8μ) on a Zeiss Axioskop 2 microscope using an AxioCam camera and the accompanying software. Rat hippocampal neuronal cultures were fixed at room temperature for 15 min in phosphate-buffered saline (PBS) containing 4% paraformaldehyde. […]

O=C(CCCCCCC(=O)Nc1ccc([C@@H]2OC(c3ccc(CO)cc3)C[C@H](CSc3nc(-c4ccccc4)c(-c4ccccc4)o3)O2)cc1)NO (stereo partly drawn) [tubacin]
suppression of the induced acetylation by ITSA1 [1]: partially suppressed by ITSA1
polymerization of microtubules after removal of nocodazole ([2]; ITSA1 50 μM): neither tubacin nor ITSA1 (50 μM; 30 minutes) prevents the repolymerization of microtubules; also recorded: neither tubacin nor ITSA1 prevented the polymerization of microtubules
stability of microtubules to depolymerization ([2]; nocodazole 332 nM, cold 4 °C 90 min, or 2 mM CaCl2): No effect of tubacin (2 μM) pre-treatment (4 h) on the stability of microtubules to nocodazole; also recorded: Microtubule depolymerization by nocodazole (332 nM; 5 h) is dominant to the effects of tubacin; also recorded: No effect of tubacin on the stability of microtubules to cold-depolymerization; also recorded: no stabilization of microtubules to any of the depolymerizing conditions tested

From patent US8178579B2, “Dioxanes and uses thereof” (President and Fellows of Harvard College, priority 2001, dated 2012)
